Six compounds from patent US4698327A, “Novel glycopeptide derivatives” (priority 1986, dated 1987) can be followed below.

In brackets after ≈: the same amount, converted by molar mass.

One assay has as its system Streptococcus pyogenes. As to conditions: Streptococcus pyogenes infection in mice; two doses, administered subcutaneously.
The test system of assay [1] is Haemophilus influenzae C.L. Kind of assay: MIC, standard agar-dilution assay. It counts as cell-based.
The test system of assay [2] is Staphylococcus aureus S13E. It counts as cell-based. As to conditions: agar dilution. In general terms: Agar dilution tests growth on a series of plates holding different concentrations.
For assay [3], the system named is Klebsiella pneumoniae X68. The assay can be described thus: MIC, standard agar-dilution assay. The format is cell-based.
Assay [4] deals with Staphylococcus epidermidis EPI1. The format is cell-based. The settings on record: agar dilution.
In assay [5] the test system is Streptococcus pneumoniae Park 1. The format is cell-based. As to conditions: agar dilution.
A further assay deals with Escherichia coli EC14. The assay can be described thus: MIC, standard agar-dilution assay. The format is cell-based.
The subject of assay [6] is Klebsiella pneumoniae X26. The assay can be described thus: MIC, standard agar-dilution assay. The format is cell-based.
The subject of assay [7] is Streptococcus pyogenes C203. The assay can be described thus: MIC, standard agar-dilution assay. It counts as cell-based.
Assay [8] deals with Staphylococcus aureus NRRL B313. As to conditions: agar dilution.
Assay [9] has as its system Klebsiella pneumoniae KAE. Kind of assay: MIC, standard agar-dilution assay. The format is cell-based.
The test system of assay [10] is Staphylococcus aureus X400. The assay can be described thus: MIC, standard agar-dilution assay. The format is cell-based.
Assay [11] has as its system Staphylococcus aureus V41. The assay can be described thus: MIC, standard agar-dilution assay. The format is cell-based.
Assay [12] deals with Streptococcus faecium ATCC 9790. Kind of assay: MIC, standard agar-dilution assay. The format is cell-based.
A further assay concerns Staphylococcus aureus. As to conditions: Staphylococcus aureus infection in mice; two doses, administered subcutaneously.
The next assay concerns Escherichia coli TEM. The assay can be described thus: MIC, standard agar-dilution assay. It counts as cell-based.
In another assay the test system is Streptococcus pneumoniae. The settings on record: Streptococcus pneumoniae infection in mice; two doses, administered subcutaneously.
The subject of assay [13] is Haemophilus influenzae 76. Kind of assay: MIC, standard agar-dilution assay. It counts as cell-based.
Assay [14] relates to Streptococcus sp. group D 2041. The assay can be described thus: MIC, standard agar-dilution assay. It counts as cell-based.
A further assay concerns Escherichia coli N10. Kind of assay: MIC, standard agar-dilution assay. The format is cell-based.
In assay [15] the test system is Staphylococcus epidermidis 222. Kind of assay: MIC, standard agar-dilution assay. The format is cell-based.

Turning to `CCCCCCCCN(C)C(CC(C)C)C(=O)NC1C(=O)NC(CC(N)=O)C(=O)NC2C(=O)NC3C(=O)NC(C(=O)NC(C(=O)O)c4cc(O)cc(O)c4-c4cc3ccc4O)C(O)c3ccc(c(Cl)c3)Oc3cc2cc(c3OC2OC(CO)C(O)C(O)C2OC2CC(C)(N)C(O)C(C)O2)Oc2ccc(cc2Cl)C1O` (stereo not drawn) [Compound 8, N^leu --(n-octyl)vancomycin], the ED50 with Streptococcus pyogenes is given as 3.7 mg/kg/2; with Staphylococcus aureus it was above 5 mg/kg/2; with Streptococcus pneumoniae, 3.1 mg/kg/2. Besides, the MIC in assay [1] was 128 µg/mL (≈ 82 µM); in [2], 1 µg/mL (≈ 0.64 µM); in [3], above 128 µg/mL; in assay [4], 2 µg/mL (≈ 1.28 µM); in assay [5], 1 µg/mL (≈ 0.64 µM); against Escherichia coli EC14, above 128 µg/mL. The MIC in assay [6] is above 128 µg/mL; in assay [7], 0.5 µg/mL (≈ 0.32 µM); in [8], 0.5 µg/mL (≈ 0.32 µM); in assay [9], above 128 µg/mL; in [10], 1 µg/mL (≈ 0.64 µM); in assay [11], 0.5 µg/mL (≈ 0.32 µM). Further, the MIC in assay [12] was 1 µg/mL (≈ 0.64 µM); in the assay on Escherichia coli TEM, above 128 µg/mL; in [13] it was 128 µg/mL (≈ 82 µM); in [14], 2 µg/mL (≈ 1.28 µM); in the assay with Escherichia coli N10 it was above 128 µg/mL; in assay [15], 1 µg/mL (≈ 0.64 µM).

Consider `CCN(CC)c1ccc(CNC2(C)CC(OC3C(Oc4c5cc6cc4Oc4ccc(cc4Cl)C(O)C4NC(=O)C(NC(=O)C6NC(=O)C(CC(N)=O)NC(=O)C(NC(=O)C(CC(C)C)NC)C(O)c6ccc(c(Cl)c6)O5)c5ccc(O)c(c5)-c5c(O)cc(O)cc5C(C(=O)O)NC4=O)OC(CO)C(O)C3O)OC(C)C2O)cc1` (stereo not drawn) [Example 77, N^van ( -p-diethylaminobenzyl)vancomycin], for which the ED50 with Streptococcus pyogenes was 0.8 mg/kg/2; with Staphylococcus aureus it was 1.1 mg/kg/2; in the assay with Streptococcus pneumoniae it was 1.2 mg/kg/2. In addition, the MIC was 128 µg/mL (≈ 79.5 µM) in assay [1]; 0.5 µg/mL (≈ 0.31 µM) in assay [2]; above 128 µg/mL in assay [3]; 1 µg/mL (≈ 0.621 µM) in assay [4]; 0.125 µg/mL (≈ 0.0776 µM) in assay [5]; above 128 µg/mL in the assay with Escherichia coli EC14. Also, the MIC in assay [6] is above 128 µg/mL; in [7], 0.25 µg/mL (≈ 0.155 µM); in assay [8] it was 0.25 µg/mL (≈ 0.155 µM); in assay [9], above 128 µg/mL; in assay [10] it was 0.5 µg/mL (≈ 0.31 µM); in assay [11], 0.5 µg/mL (≈ 0.31 µM). For the same compound, the MIC in [12] was 0.5 µg/mL (≈ 0.31 µM); in the assay with Escherichia coli TEM, above 128 µg/mL; in [13], 128 µg/mL (≈ 79.5 µM); in [14], 1 µg/mL (≈ 0.621 µM); against Escherichia coli N10, above 128 µg/mL; in assay [15] it was 0.5 µg/mL (≈ 0.31 µM).

As to `CNC(CC(C)C)C(=O)NC1C(=O)NC(CC(N)=O)C(=O)NC2C(=O)NC3C(=O)NC(C(=O)NC(C(=O)O)c4cc(O)cc(O)c4-c4cc3ccc4O)C(O)c3ccc(c(Cl)c3)Oc3cc2cc(c3OC2OC(CO)C(O)C(O)C2OC2CC(C)(NCc3ccc(Br)cc3)C(O)C(C)O2)Oc2ccc(cc2Cl)C1O` (stereo not drawn) [Example 80, N^van --( -p-bromobenzyl)vancomycin], the ED50 in the assay with Streptococcus pyogenes came to 0.78 mg/kg/2; in the assay with Staphylococcus aureus it was 1.34 mg/kg/2; in the assay with Streptococcus pneumoniae, 0.41 mg/kg/2. For the same compound, the MIC in assay [1] was 64 µg/mL (≈ 39.5 µM); in assay [2], 0.25 µg/mL (≈ 0.154 µM); in [3], above 128 µg/mL; in [4] it was 1 µg/mL (≈ 0.618 µM); in assay [5], 0.03 µg/mL (≈ 0.0185 µM); with Escherichia coli EC14 it was above 128 µg/mL. In addition, the MIC was above 128 µg/mL in assay [6]; 0.25 µg/mL (≈ 0.154 µM) in assay [7]; 0.25 µg/mL (≈ 0.154 µM) in [8]; above 128 µg/mL in assay [9]; 0.25 µg/mL (≈ 0.154 µM) in assay [10]; 0.5 µg/mL (≈ 0.309 µM) in [11]. Also, the MIC in [12] is 0.25 µg/mL (≈ 0.154 µM); with Escherichia coli TEM, above 128 µg/mL; in assay [13], 64 µg/mL (≈ 39.5 µM); in [14] it was 1 µg/mL (≈ 0.618 µM); in the assay with Escherichia coli N10, above 128 µg/mL; in assay [15] it was 0.5 µg/mL (≈ 0.309 µM).

On to `CCCCc1ccc(CNC2(C)CC(OC3C(Oc4c5cc6cc4Oc4ccc(cc4Cl)C(O)C4NC(=O)C(NC(=O)C6NC(=O)C(CC(N)=O)NC(=O)C(NC(=O)C(CC(C)C)NC)C(O)c6ccc(c(Cl)c6)O5)c5ccc(O)c(c5)-c5c(O)cc(O)cc5C(C(=O)O)NC4=O)OC(CO)C(O)C3O)OC(C)C2O)cc1` (stereo not drawn) [Example 81, N^van --( -p-butylbenzyl)vancomycin], for which the ED50 came to 1.16 mg/kg/2 in the assay with Streptococcus pyogenes, 0.74 mg/kg/2 with Staphylococcus aureus and 1.26 mg/kg/2 in the assay on Streptococcus pneumoniae. Further, the MIC is 32 µg/mL (≈ 20.1 µM) in assay [1]; 0.06 µg/mL (≈ 0.0376 µM) in assay [2]; above 128 µg/mL in [3]; 0.25 µg/mL (≈ 0.157 µM) in assay [4]; 0.06 µg/mL (≈ 0.0376 µM) in [5]; above 128 µg/mL against Escherichia coli EC14. Also, the MIC in assay [6] is above 128 µg/mL; in assay [7] it was 0.06 µg/mL (≈ 0.0376 µM); in assay [8], 0.06 µg/mL (≈ 0.0376 µM); in [9], above 128 µg/mL; in [10], 0.125 µg/mL (≈ 0.0783 µM); in assay [11] it was 0.125 µg/mL (≈ 0.0783 µM). Further, the MIC in assay [12] was 0.06 µg/mL (≈ 0.0376 µM); against Escherichia coli TEM, above 128 µg/mL; in assay [13], 32 µg/mL (≈ 20.1 µM); in [14], 0.25 µg/mL (≈ 0.157 µM); against Escherichia coli N10, above 128 µg/mL; in assay [15], 0.125 µg/mL (≈ 0.0783 µM).

Consider `CCCCOc1ccc(CNC2(C)CC(OC3C(Oc4c5cc6cc4Oc4ccc(cc4Cl)C(O)C4NC(=O)C(NC(=O)C6NC(=O)C(CC(N)=O)NC(=O)C(NC(=O)C(CC(C)C)NC)C(O)c6ccc(c(Cl)c6)O5)c5ccc(O)c(c5)-c5c(O)cc(O)cc5C(C(=O)O)NC4=O)OC(CO)C(O)C3O)OC(C)C2O)cc1` (stereo not drawn) [Example 84, N^van --( -p-butoxybenzyl)vancomycin], for which the figures for the ED50 in the assay with Streptococcus pyogenes, with Staphylococcus aureus and with Streptococcus pneumoniae were 0.69 mg/kg/2, 0.65 mg/kg/2 and 1.14 mg/kg/2, respectively. In addition, the MIC is 32 µg/mL (≈ 19.9 µM) in assay [1]; 0.125 µg/mL (≈ 0.0776 µM) in [2]; above 128 µg/mL in [3]; 0.25 µg/mL (≈ 0.155 µM) in [4]; 0.03 µg/mL (≈ 0.0186 µM) in [5]; above 128 µg/mL in the assay on Escherichia coli EC14. Further, the MIC was above 128 µg/mL in assay [6]; 0.06 µg/mL (≈ 0.0372 µM) in assay [7]; 0.125 µg/mL (≈ 0.0776 µM) in [8]; above 128 µg/mL in [9]; 0.125 µg/mL (≈ 0.0776 µM) in [10]; 0.125 µg/mL (≈ 0.0776 µM) in assay [11]. Moreover, the MIC is 0.125 µg/mL (≈ 0.0776 µM) in [12]; above 128 µg/mL in the assay on Escherichia coli TEM; 64 µg/mL (≈ 39.7 µM) in assay [13]; 0.25 µg/mL (≈ 0.155 µM) in [14]; above 128 µg/mL with Escherichia coli N10; 0.25 µg/mL (≈ 0.155 µM) in [15].

As to `CCCCCCCCc1ccc(CNC2(C)CC(OC3C(Oc4c5cc6cc4Oc4ccc(cc4Cl)C(O)C4NC(=O)C(NC(=O)C6NC(=O)C(CC(N)=O)NC(=O)C(NC(=O)C(CC(C)C)NC)C(O)c6ccc(c(Cl)c6)O5)c5ccc(O)c(c5)-c5c(O)cc(O)cc5C(C(=O)O)NC4=O)OC(CO)C(O)C3O)OC(C)C2O)cc1` (stereo not drawn) [Example 93, N^van --( -p-octylbenzyl)vancomycin], the ED50 was found to be 0.62 mg/kg/2 in the assay with Streptococcus pyogenes, 0.19 mg/kg/2 in the assay on Staphylococcus aureus and 0.23 mg/kg/2 in the assay with Streptococcus pneumoniae. In addition, the MIC was above 128 µg/mL in assay [1]; 0.5 µg/mL (≈ 0.303 µM) in assay [2]; above 128 µg/mL in assay [3]; 2 µg/mL (≈ 1.21 µM) in assay [4]; 0.25 µg/mL (≈ 0.151 µM) in assay [5]; above 128 µg/mL against Escherichia coli EC14. Besides, the MIC in [6] was above 128 µg/mL; in [7] it was 0.25 µg/mL (≈ 0.151 µM); in assay [8], 0.5 µg/mL (≈ 0.303 µM); in [9], above 128 µg/mL; in assay [10], 1 µg/mL (≈ 0.605 µM); in [11] it was 1 µg/mL (≈ 0.605 µM). For the same compound, the MIC is 0.25 µg/mL (≈ 0.151 µM) in [12]; above 128 µg/mL in the assay with Escherichia coli TEM; above 128 µg/mL in assay [13]; 0.5 µg/mL (≈ 0.303 µM) in assay [14]; above 128 µg/mL in the assay on Escherichia coli N10; 1 µg/mL (≈ 0.605 µM) in assay [15].
